Experimental data reported in patent EP3858439A1 (priority 2020, dated 2021).
Counter-ions that a name gives are not always drawn.

Biological target: T1, human µ-opioid receptor (Homo sapiens, UniProt P35372)
T1 construct: expressed in transfected cells; host or cells: CHO-K1
Assay: Binding assay to human µ-opioid receptor ([3H]-DAMGO displacement)
Conditions: not given
Experimental: Binding assay to human µ-opioid receptor
Transfected CHO-K1 cell membranes (20 µg) were incubated with [^3H]-DAMGO (1 nM) in assay buffer containing Tris-HCl 50 mM, MgCl2 5 mM at pH 7.4.
Plates were incubated at 27 °C for 60 min. After the incubation period, the reaction mixture was then transferred to MultiScreen HTS, FC plates (Millipore), filtered and plates were washed 3 times with ice-cold 10 mM Tris-HCl (pH 7.4).
Filters were dried and counted at approximately 40% efficiency in a MicroBeta scintillation counter (Perkin-Elmer) using EcoScint liquid scintillation cocktail.

T1 sequence (P35372 whole entry): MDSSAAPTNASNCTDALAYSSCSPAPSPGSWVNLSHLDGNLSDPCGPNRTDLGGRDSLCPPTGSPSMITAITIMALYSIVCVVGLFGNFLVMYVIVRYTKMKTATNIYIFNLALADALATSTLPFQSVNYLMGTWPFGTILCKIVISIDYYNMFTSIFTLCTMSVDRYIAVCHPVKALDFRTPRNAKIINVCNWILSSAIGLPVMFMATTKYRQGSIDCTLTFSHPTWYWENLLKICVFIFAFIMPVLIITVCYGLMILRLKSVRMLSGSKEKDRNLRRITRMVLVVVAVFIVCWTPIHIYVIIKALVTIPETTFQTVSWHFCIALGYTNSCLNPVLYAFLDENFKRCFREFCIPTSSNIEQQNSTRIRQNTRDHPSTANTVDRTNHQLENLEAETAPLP

Row | Structure (SMILES) | Ki
1 | CNCC(Cc1cccc(F)c1)C(=O)N1CCC(c2ccccc2)(N(C)C)CC1 (stereo not drawn) [Example 52, 1-(4-(dimethylamino)-4-phenylpiperidin-1-yl)-2-(3-fluorobenzyl)-3-(methylamino) propan-1-one] | < 100 nM
2 | CN(C)C1(c2ccccc2)CCN(C(=O)C(CNCc2ccccc2)Cc2ccccc2)CC1 (stereo not drawn) [Example 76, 2-Benzyl-3-(benzylamino)-1-(4-(dimethylamino)-4-phenylpiperidin-1-yl)propan-1-one dihydrochloride] | < 100 nM
3 | CN(C)C1(c2ccccc2)CCN(C(=O)[C@@H](CN)[C@H]2CCCc3ccccc32)CC1 (racemic) [Example 78, (RS)-3-amino-1-(4-(dimethylamino)-4-phenylpiperidin-1-yl)-2-((RS)-1,2,3,4-tetrahydronaphthalen-1-yl)propan-1-one] | < 100 nM
4 | Cc1ccccc1CC(CN)C(=O)N1CCC(c2ccccc2)(N(C)C)CC1 (stereo not drawn) [Example 75, 3-Amino-1-(4-(dimethylamino)-4-phenylpiperidin-1-yl)-2-(2-methylbenzyl)propan-1-one dihydrochloride] | 100 to 500 nM

Same assay, conditions: Table 2; transfected CHO-K1 cell membranes, [3H]-DAMGO 1 nM, 60 min at 27 °C; read-out: Binding µ

Row | Structure (SMILES) | Ki
5 | CC[C@@H](c1ccccc1)[C@@H](CNC)C(=O)N1CC(c2ccccc2)(N(C)C)C1 [Example 19, (2S,3R)-1-(3-(dimethylamino)-3-phenylazetidin-1-yl)-2-((methylamino)methyl)-3-phenylpentan-1-one dihydrochloride] | > 500 nM
6 | C[C@H](N)[C@H](Cc1ccccc1)C(=O)N1CCC(c2ccccc2)(N(C)C)CC1 [Example 48, (2S,3S)-3-amino-2-benzyl-1-(4-(dimethylamino)-4-phenylpiperidin-1-yl)butan-1-one dihydrochloride] | < 100 nM
7 | CNC[C@H](C(=O)N1CCC(c2ccccc2)(N(C)C)CC1)[C@@H](C)c1ccccc1 [Example 86, (2R,3R)-1-(4-(dimethylamino)-4-phenylpiperidin-1-yl)-2-((methylamino)methyl)-3-phenylbutan-1-one] | < 100 nM
8 | CNC[C@@H](C(=O)N1CCC(NC)(c2ccccc2)CC1)[C@@H](C)c1ccccc1 [Example 4, (2S,3R)-1-(4-(methylamino)-4-phenylpiperidin-1-yl)-2-((methylamino)methyl)-3-phenylbutan-1-one] | 100 to 500 nM
9 | CC[C@@H](c1ccccc1)[C@@H](CN)C(=O)N1CCC(c2ccccc2)(N(C)C)CC1 [Example 8, (2S,3R)-2-(aminomethyl)-1-(4-(dimethylamino)-4-phenylpiperidin-1-yl)-3-phenylpentan-1-one dihydrochloride] | < 100 nM
10 | CC[C@@H](c1cccc(Cl)c1)[C@@H](CN)C(=O)N1CCC(c2ccccc2)(N(C)C)CC1 [Example 66, (2S,3R)-2-(aminomethyl)-3-(3-chlorophenyl)-1-(4-(dimethylamino)-4-phenylpiperidin-1-yl)pentan-1-one] | < 100 nM
11 | CN(C)C1(c2cccc(O)c2)CCN(C(=O)C2NCCc3ccccc32)CC1 (stereo not drawn) [Example 35, (4-(dimethylamino)-4-(3-hydroxyphenyl)piperidin-1-yl)(1,2,3,4-tetrahydroisoquinolin-1-yl)methanone dihydrochloride] | < 100 nM
12 | CC[C@@H](c1ccccc1)[C@@H](CNC)C(=O)N1CCC(c2ccccc2)(N(C)C)CC1 [Example 13, (2S,3R)-1-(4-(dimethylamino)-4-phenylpiperidin-1-yl)-2-((methylamino)methyl)-3-phenylpentan-1-one dihydrochloride] | < 100 nM
